Measured values: PubChem BioAssay (NCI)
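Tested at 5 concentrations; 48 h exposure; 96-well plates; endpoints linearly interpolated, else capped at highest concentration. GI50: concentration for 50% inhibition of growth. Definition used: TGI = concentration required for complete inhibition of growth.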

Key:
Test in all cases: DTP human tumour cell line panel, 48 h
[1] = tested on: SK-MEL-2 melanoma
[2] = tested on: ACHN renal
[3] = tested on: SF-268 CNS
[4] = tested on: U251 CNS
[5] = tested on: NCI-H226 lung
[6] = tested on: NCI-H460 lung
[7] = tested on: EKVX NSCLC
[8] = tested on: UACC-257 melanoma
[9] = tested on: SNB-75 CNS
[10] = tested on: HS 578T breast
[11] = tested on: OVCAR-4 ovarian
[12] = tested on: MDA-MB-231 breast
[13] = tested on: RXF 393 renal
[14] = tested on: A498 renal
[15] = tested on: NCI-H522 lung
[16] = tested on: PC-3 prostate
[17] = tested on: SF-295 CNS
[18] = tested on: SK-MEL-5 melanoma
[19] = tested on: NCI-H23 lung
[20] = tested on: OVCAR-8 ovarian
[21] = tested on: OVCAR-5 ovarian
[22] = tested on: HL-60(TB) leukemia
[23] = tested on: SW-620 colon
[24] = tested on: SK-MEL-28 melanoma
[25] = tested on: DU-145 prostate
[26] = tested on: TK-10 renal
[27] = tested on: MOLT-4 leukemia
[28] = tested on: MCF7 breast
[29] = tested on: OVCAR-3 ovarian
[30] = tested on: HCT-15 colon
[31] = tested on: SK-OV-3 ovarian
[32] = tested on: 786-0 renal
[33] = tested on: M14 melanoma
[34] = tested on: HCC-2998 colon
[35] = tested on: K-562 leukemia
[36] = tested on: HOP-62 NSCLC
[37] = tested on: LOX IMVI melanoma
[38] = tested on: HCT-116 colon
[39] = tested on: COLO 205 colon
[40] = tested on: MDA-MB-435
[41] = tested on: HT29 colon
[42] = tested on: HOP-92 NSCLC
[43] = tested on: T-47D breast
[44] = tested on: UACC-62 melanoma
[45] = tested on: KM12 colon
[46] = tested on: IGROV1 ovarian
[47] = tested on: SN12C renal
[48] = tested on: SF-539 CNS
[49] = tested on: MALME-3M melanoma
[50] = tested on: BT-549 breast
[51] = tested on: SNB-19 CNS
[52] = tested on: UO-31 renal
[53] = tested on: CAKI-1 renal
[54] = tested on: A549 NSCLC
[55] = tested on: RPMI-8226 leukemia
[56] = tested on: NCI/ADR-RES ovarian
[57] = tested on: CCRF-CEM leukemia
[58] = tested on: SR leukemia

CN1CCN(Cc2ccc(NC(=O)c3cncc(C#Cc4c(N)ncc5c(F)cccc45)c3)cc2C(F)(F)F)CC1
GI50 [1]: 809 nM
TGI [1]: 1930 nM
GI50 [2]: 708 nM
TGI [2]: 1360 nM
GI50 [3]: 741 nM
TGI [3]: 1610 nM
GI50 [4]: 725 nM
TGI [4]: 1420 nM
GI50 [5]: 689 nM
TGI [5]: 3380 nM
GI50 [6]: 803 nM
TGI [6]: 1570 nM
GI50 [7]: 732 nM
TGI [7]: 1460 nM
GI50 [8]: 854 nM
TGI [8]: 1760 nM
GI50 [9]: 827 nM
TGI [9]: 1550 nM
GI50 [10]: 812 nM
TGI [10]: 2180 nM
GI50 [11]: 503 nM
TGI [11]: 1250 nM
GI50 [12]: 522 nM
TGI [12]: 1170 nM
GI50 [13]: 799 nM
TGI [13]: 1540 nM
GI50 [14]: 763 nM
TGI [14]: 1550 nM
GI50 [15]: 750 nM
TGI [15]: 1660 nM
GI50 [16]: 787 nM
TGI [16]: 1600 nM
GI50 [17]: 890 nM
TGI [17]: 1770 nM
GI50 [18]: 841 nM
TGI [18]: 1550 nM
GI50 [19]: 804 nM
TGI [19]: 1690 nM
GI50 [20]: 988 nM
TGI [20]: 2240 nM
GI50 [21]: 794 nM
TGI [21]: 1560 nM
GI50 [22]: 330 nM
TGI [22]: 1220 nM
GI50 [23]: 454 nM
TGI [23]: 1160 nM
GI50 [24]: 831 nM
TGI [24]: 1560 nM
GI50 [25]: 832 nM
TGI [25]: 1520 nM
GI50 [26]: 951 nM
TGI [26]: 1710 nM
GI50 [27]: 570 nM
TGI [27]: 1500 nM
GI50 [28]: 550 nM
TGI [28]: 1310 nM
GI50 [29]: 828 nM
TGI [29]: 1530 nM
GI50 [30]: 600 nM
TGI [30]: 1300 nM
GI50 [31]: 2140 nM
TGI [31]: 7450 nM
GI50 [32]: 873 nM
TGI [32]: 1620 nM
GI50 [33]: 388 nM
TGI [33]: 1170 nM
GI50 [34]: 821 nM
TGI [34]: 1560 nM
GI50 [35]: 5 nM
TGI [35]: 738 nM
GI50 [36]: 1280 nM
TGI [36]: 3870 nM
GI50 [37]: 646 nM
TGI [37]: 1350 nM
GI50 [38]: 517 nM
TGI [38]: 1200 nM
GI50 [39]: 638 nM
TGI [39]: 1420 nM
GI50 [40]: 597 nM
TGI [40]: 1240 nM
GI50 [41]: 305 nM
TGI [41]: 1080 nM
GI50 [42]: 135 nM
TGI [42]: 858 nM
GI50 [43]: 1940 nM
TGI [43]: 6380 nM
GI50 [44]: 845 nM
TGI [44]: 1810 nM
GI50 [45]: 13.3 nM
TGI [45]: 650 nM
GI50 [46]: 726 nM
TGI [46]: 1610 nM
GI50 [47]: 743 nM
TGI [47]: 1430 nM
GI50 [48]: 593 nM
TGI [48]: 1220 nM
GI50 [49]: 443 nM
TGI [49]: 1230 nM
GI50 [50]: 1640 nM
TGI [50]: 4320 nM
GI50 [51]: 867 nM
TGI [51]: 1590 nM
GI50 [52]: 712 nM
TGI [52]: 1420 nM
GI50 [53]: 860 nM
TGI [53]: 1610 nM
GI50 [54]: 794 nM
TGI [54]: 1560 nM
GI50 [55]: 991 nM
TGI [55]: 2370 nM

C#CC[C@@H]1C[C@]2(C)[C@H]3CC=C4[C@H]5[C@@H](C)[C@H](C)CC[C@]5(C(=O)NCCCCCCCCN)CC[C@@]4(C)[C@]3(C)CC[C@H]2C(C)(C)[C@H]1OC(C)=O
GI50 [14]: 1780 nM
TGI [14]: 3210 nM
GI50 [20]: 2150 nM
TGI [20]: 5010 nM
GI50 [35]: 2020 nM
TGI [35]: 5690 nM

CCC1=C[C@@H]2CN(C1)Cc1c([nH]c3ccccc13)[C@@](C(=O)OC)(c1cc3c(cc1OC)N(C)[C@H]1[C@@](O)(C(=O)OC)[C@H](OC(C)=O)[C@]4(CC)C=CCN5CC[C@]31[C@@H]54)C2
GI50 [1]: 727 nM
TGI [1]: 9230 nM
GI50 [56]: 1580 nM
TGI [56]: 30500 nM
GI50 [2]: 194 nM
TGI [2]: 25600 nM
GI50 [3]: < 10 nM
TGI [3]: 14200 nM
GI50 [4]: < 10 nM
TGI [4]: 8420 nM
GI50 [5]: < 30.2 nM
TGI [5]: 36500 nM
GI50 [6]: < 10 nM
TGI [6]: 444 nM
GI50 [7]: < 10 nM
TGI [7]: 18800 nM
GI50 [9]: < 10 nM
TGI [9]: 7920 nM
GI50 [10]: < 10 nM
TGI [10]: 9590 nM
GI50 [11]: < 10 nM
TGI [11]: 21000 nM
GI50 [12]: < 18 nM
TGI [12]: 8040 nM
GI50 [14]: < 10 nM
TGI [14]: 141 nM
GI50 [15]: < 22.7 nM
TGI [15]: > 31800 nM
GI50 [16]: < 10 nM
TGI [16]: 21800 nM
GI50 [17]: < 10 nM
GI50 [18]: < 10 nM
TGI [18]: 119 nM
GI50 [19]: < 18.7 nM
TGI [19]: 41400 nM
GI50 [20]: < 21.3 nM
TGI [20]: 25600 nM
GI50 [21]: < 10 nM
TGI [21]: 27200 nM
GI50 [22]: < 10 nM
TGI [22]: < 10 nM
GI50 [23]: < 10 nM
TGI [23]: 17900 nM
GI50 [24]: < 10 nM
TGI [24]: 18200 nM
GI50 [25]: < 10 nM
TGI [25]: < 10 nM
GI50 [26]: 641 nM
TGI [26]: 16700 nM
GI50 [27]: < 10 nM
TGI [27]: 3500 nM
GI50 [28]: < 10 nM
TGI [28]: 11500 nM
GI50 [29]: < 10 nM
TGI [29]: < 10 nM
GI50 [30]: 141 nM
TGI [30]: 6800 nM
GI50 [31]: < 10 nM
TGI [31]: 2020 nM
GI50 [32]: < 20.5 nM
TGI [32]: 13000 nM
GI50 [33]: 10.3 nM
TGI [33]: 1010 nM
GI50 [34]: < 11 nM
TGI [34]: 1860 nM
GI50 [35]: < 10 nM
TGI [35]: 18900 nM
GI50 [36]: < 14.8 nM
TGI [36]: 24400 nM
GI50 [37]: < 10 nM
TGI [37]: 15500 nM
GI50 [57]: < 10 nM
TGI [57]: 710 nM
GI50 [38]: < 10 nM
TGI [38]: > 40400 nM
GI50 [58]: < 10 nM
TGI [58]: 1950 nM
GI50 [39]: < 10 nM
TGI [39]: 77.5 nM
GI50 [41]: < 10 nM
TGI [41]: > 41600 nM
GI50 [42]: < 47.1 nM
TGI [42]: 554 nM
GI50 [44]: < 10 nM
TGI [44]: 18600 nM
GI50 [46]: < 13.6 nM
TGI [46]: 463 nM
GI50 [47]: < 21.4 nM
TGI [47]: 43700 nM
GI50 [48]: < 10 nM
TGI [48]: 44.1 nM
GI50 [49]: < 10 nM
TGI [49]: 4920 nM
GI50 [50]: < 10.7 nM
TGI [50]: 8820 nM
GI50 [51]: < 10 nM
TGI [51]: 18900 nM
GI50 [52]: 1020 nM
TGI [52]: 18600 nM
TGI [53]: 2520 nM
GI50 [54]: < 19 nM
TGI [54]: > 34100 nM
GI50 [55]: < 10 nM
